Assay results from patent US10800732B2, “Substituted malonamides and their use as antibacterial drugs” (National Taiwan University, priority 2015, dated 2020).
Values after ≈ are worked out from the molar mass of the structure shown. Where two headings read alike, the source gives them in different places.

Legend:
S. aureus NCTC 8325 [1] = test: MIC, S. aureus NCTC 8325 (CLSI broth microdilution / agar dilution); format: cell-based, Staphylococcus aureus
MRSA ATCC 33592 = test: MIC, MRSA ATCC 33592; format: cell-based, methicillin-resistant Staphylococcus aureus; details: Staphylococcus aureus, MRSA ATCC 33592, read-out: MIC
MRSA ATCC 49476 = test: MIC, MRSA ATCC 49476; format: cell-based, methicillin-resistant Staphylococcus aureus; details: Staphylococcus aureus; MRSA ATCC 49476; read-out: MIC
[2] = system: S. epidermidis ATCC 12228; test: MIC, S. epidermidis ATCC 12228; format: cell-based; details: Staphylococcus epidermidis, ATCC12228; S. epidermidis ATCC 12228; read-out: MIC
S. aureus NCTC 8325 [3] = format: cell-based, Staphylococcus aureus; details: for fold MIC change (resistance): sub-inhibitory concentration for 30 consecutive days; for time to over 64-fold MIC change: sub-inhibitory concentration, serial passage
MRSA SCCmec VT = test: MIC, MRSA SCCmec VT; format: cell-based, methicillin-resistant Staphylococcus aureus; details: Staphylococcus aureus; MRSA SCCmec VT; read-out: MIC
[4] = system: S. epidermidis ATCC 35984; test: MIC, S. epidermidis ATCC 35984; format: cell-based; details: Staphylococcus epidermidis, ATCC35984; S. epidermidis ATCC 35984; read-out: MIC
[5] = Staphylococcus aureus, MSSA NCTC 8325, Table 6, read-out: MIC
[6] = Staphylococcus aureus, NCTC8325, S. aureus NCTC 8325, read-out: MIC
[7] = Staphylococcus aureus, NCTC8325

| Compound | MIC (S. aureus NCTC 8325 [1]; [5]) [mg/L] | MIC (MRSA ATCC 33592; Table 6) [mg/L] | also measured |
| --- | --- | --- | --- |
| O=C(Nc1ccc(Cl)c(O)c1)C(CCCl)C(=O)Nc1ccc(Cl)c(O)c1 [SC5030, N^1,N^3-bis(4-chloro-3-hydroxyphenyl)-2-(2-chloroethyl)malonamide] | > 16 |  |  |
| O=C(Nc1cccc(Cl)c1)C(CCCl)C(=O)Nc1cccc(Cl)c1 [SC5027, 2-(2-chloroethyl)-N^1,N^3-bis(3-chlorophenyl)malonamide] | > 8 |  |  |
| C=CCC(C(=O)Nc1ccc(Cl)c(C(F)(F)F)c1)C(=O)Nc1ccc(Cl)c(C(F)(F)F)c1 [SC5037, 2-allyl-N^1,N^3-bis(4-chloro-3-(trifluoromethyl)phenyl)malonamide] | 8 (≈ 16 µM) | > 32 |  |
| C=CCC(C(=O)Nc1cc(Cl)cc(Cl)c1)C(=O)Nc1cc(Cl)cc(Cl)c1 [SC5040, 2-allyl-N^1,N^3-bis(3,5-dichlorophenyl)malonamide] | > 32 | > 32 |  |
| O=C(Nc1ccc(Cl)c(C(F)(F)F)c1)C1(C(=O)Nc2ccc(Cl)c(C(F)(F)F)c2)CC1 [SC5020, N,N′-bis(4-chloro-3-(trifluoromethyl)phenyl)cyclopropane-1,1-dicarboxamide] | > 8 |  |  |
| O=C(NC1CCCCC1)C(CCCl)C(=O)NC1CCCCC1 [SC5048, 2-(2-chloroethyl)-N1,N3-dicyclohexylmalonamide] | > 64 | > 64 |  |
| O=C(Nc1cccc(O)c1)C(CCCl)C(=O)Nc1cccc(O)c1 [SC5031, 2-(2-chloroethyl)-N^1,N^3-bis(3-hydroxyphenyl)malonamide] | > 64 |  |  |
| O=C(N[C@H](CO)[C@H](O)c1ccc([N+](=O)[O-])cc1)C(Cl)Cl [Chloramphenicol] |  |  | MIC (S. aureus NCTC 8325 [1]; [6]): 4 mg/L (≈ 12.4 µM); MIC (MRSA ATCC 33592): 32 mg/L (≈ 99 µM); MIC (MRSA ATCC 49476): 8 mg/L (≈ 24.8 µM); MIC [2]: 2 mg/L (≈ 6.19 µM); fold MIC change (resistance) (S. aureus NCTC 8325 [3]): no resistance; MIC (MRSA SCCmec VT): 64 mg/L (≈ 198 µM) |
| C#Cc1cccc(NC(=O)C(CC=C)C(=O)Nc2cccc(C#C)c2)c1 [SC5038, 2-allyl-N^1,N^3-bis(3-ethynylphenyl)malonamide] | > 32 | > 32 |  |
| O=C(Nc1cc(Cl)cc(Cl)c1)C(CCCl)C(=O)Nc1cc(C(F)(F)F)cc(C(F)(F)F)c1 (stereo not shown) [SC5036, N^1-(3,5-bis(trifluoromethyl)phenyl)-2-(2-chloroethyl)-N^3-(3,5-dichlorophenyl) malonamide] | 0.25 (≈ 0.479 µM) | 0.5 (≈ 0.958 µM) |  |
| CC[C@H]1OC(=O)[C@H](C)[C@@H](O[C@H]2C[C@@](C)(OC)[C@@H](O)[C@H](C)O2)[C@H](C)[C@@H](O[C@@H]2O[C@H](C)C[C@H](N(C)C)[C@H]2O)[C@](C)(O)C[C@@H](C)C(=O)[C@H](C)[C@@H](O)[C@]1(C)O [Erythromycin] |  |  | MIC (S. aureus NCTC 8325 [1]; [6]): 0.5 mg/L (≈ 0.681 µM); MIC (MRSA ATCC 33592): > 64 mg/L; MIC (MRSA ATCC 49476): > 64 mg/L; MIC [2]: 4 mg/L (≈ 5.45 µM); time to over 64-fold MIC change (S. aureus NCTC 8325 [3]): ≤ 17 days; MIC (MRSA SCCmec VT): > 64 mg/L; MIC [4]: 4 mg/L (≈ 5.45 µM) |
| O=C(Nc1cc(Cl)cc(Cl)c1)C(CCCl)C(=O)Nc1ccc([N+](=O)[O-])c(C(F)(F)F)c1 (stereo not shown) [SC5041, 2-(2-chloroethyl)-N^1-(3,5-dichlorophenyl)-N^3-(4-nitro-3-(trifluoromethyl)phenyl)malonamide] | 0.5 (≈ 1 µM) | 0.5 (≈ 1 µM) |  |
| C=CCNC(=O)C(CCCl)C(=O)NCC=C [SC5051, N1,N3-diallyl-2-(2-chloroethyl)malonamide] | > 64 | > 64 |  |
| Cc1ccc(NC(=O)C(CCCl)C(=O)Nc2ccc(C)c(O)c2)cc1O [SC5029, 2-(2-chloroethyl)-N^1,N^3-bis(3-hydroxy-4-methylphenyl)malonamide] | 8 (≈ 21.2 µM) |  |  |
| CCCCNC(=O)C(CCCl)C(=O)Nc1ccc(Cl)c(C(F)(F)F)c1 (stereo not shown) [SC5052, N1-butyl-N3-(4-chloro-3-(trifluoromethyl)phenyl)-2-(2-chloroethyl)malonamide] | > 64 | > 64 |  |
| CN(C)[C@@H]1C(O)=C(C(N)=O)C(=O)[C@@]2(O)C(O)=C3C(=O)c4c(O)cccc4[C@@](C)(O)[C@H]3C[C@@H]12 [Tetracycline] |  |  | MIC (MRSA ATCC 33592): > 64 mg/L; MIC (MRSA ATCC 49476): > 64 mg/L; MIC [2]: 8 mg/L (≈ 18 µM); MIC (MRSA SCCmec VT): 32 mg/L (≈ 72 µM); MIC [4]: 0.25 mg/L (≈ 0.563 µM) |
| CCCCNC(=O)C(CCCl)C(=O)NCCCC [SC5047, N1,N3-dibutyl-2-(2-chloroethyl)malonamide] | > 64 | > 64 |  |

| Compound | MIC (S. aureus NCTC 8325 [1]; [5]) [mg/L] | MIC (MRSA ATCC 33592; Table 6) [mg/L] | also measured |
| --- | --- | --- | --- |
| O=C(Nc1cccc(C(F)(F)F)c1)C(CCCl)C(=O)Nc1cccc(C(F)(F)F)c1 [SC5023, 2-(2-chloroethyl)-N^1,N^3-bis(3-(trifluoromethyl)phenyl)malonamide] | 2 (≈ 4.42 µM) | 1 (≈ 2.21 µM) |  |
| O=C(Nc1ccc([N+](=O)[O-])c(C(F)(F)F)c1)C(CCCl)C(=O)Nc1ccc([N+](=O)[O-])c(C(F)(F)F)c1 [SC5034, 2-(2-chloroethyl)-N^1,N^3-bis(4-nitro-3-(trifluoromethyl)phenyl)malonamide] | 1 (≈ 1.84 µM) |  |  |
| O=C(Nc1ccc(OC(F)(F)F)cc1)C(CCCl)C(=O)Nc1ccc(OC(F)(F)F)cc1 [SC5024, 2-(2-chloroethyl)-N^1,N^3-bis(4-(trifluoromethoxy)phenyl)malonamide] | 1 (≈ 2.06 µM) | 1 (≈ 2.06 µM) |  |
| O=C(Nc1cc(C(F)(F)F)cc(C(F)(F)F)c1)C(CCCl)C(=O)Nc1cc(C(F)(F)F)cc(C(F)(F)F)c1 [SC5032, N,N^3-bis(3,5-bis(trifluoromethyl)phenyl)-2-(2-chloroethyl)malonamide] | 32 (≈ 54.4 µM) |  |  |
| CC1COc2c(N3CCN(C)CC3)c(F)cc3c(=O)c(C(=O)O)cn1c23 (stereo not shown) [Ofloxacin] |  |  | MIC (S. aureus NCTC 8325 [1]; [7]): 0.125 mg/L (≈ 0.346 µM); MIC (MRSA ATCC 33592): 0.25 mg/L (≈ 0.692 µM); MIC (MRSA ATCC 49476): 0.5 mg/L (≈ 1.38 µM); MIC [2]: 0.25 mg/L (≈ 0.692 µM); fold MIC change (resistance) (S. aureus NCTC 8325 [3]): 8 fold; MIC (MRSA SCCmec VT): 0.25 mg/L (≈ 0.692 µM) |
| CCCNC(=O)C(CCCl)C(=O)NCCC [SC5046, 2-(2-chloroethyl)-N1,N3-dipropylmalonamide] | > 64 | > 64 |  |
| C#Cc1cccc(NC(=O)C2(C(=O)Nc3cccc(C#C)c3)CC2)c1 [SC5021, N,N′-bis(3-ethynylphenyl)cyclopropane-1,1-dicarboxamide] | 8 (≈ 24.4 µM) |  |  |
| O=C(Nc1cccc([N+](=O)[O-])c1)C(CCCl)C(=O)Nc1cccc([N+](=O)[O-])c1 [SC5028, 2-(2-chloroethyl)-N^1,N^3-bis(3-nitrophenyl)malonamide] | > 64 |  |  |
| CCCNC(=O)C(CCCl)C(=O)Nc1ccc(Cl)c(C(F)(F)F)c1 (stereo not shown) [SC5049, N1-(4-chloro-3-(trifluoromethyl)phenyl)-2-(2-chloroethyl)-N3-propylmalonamide] | > 64 | > 64 |  |
| C=CCC(C(=O)Nc1cccc(CC)c1)C(=O)Nc1cccc(CC)c1 [SC5039, 2-allyl-N^1,N^3-bis(3-ethylphenyl)malonamide] | > 32 | > 32 |  |
| N^1,N^3-bis(4-pentafluorosulfurphenyl)-2-(2-chloroethyl)malonamide [SC5033] |  |  | MIC (S. aureus NCTC 8325 [1]; MSSA NCTC 8325, Table 6): 32 mg/L |
| CO[C@H]1/C=C/O[C@@]2(C)Oc3c(C)c(O)c4c(O)c(c(/C=N/N5CCN(C)CC5)c(O)c4c3C2=O)NC(=O)/C(C)=C\C=C\[C@H](C)[C@H](O)[C@@H](C)[C@@H](O)[C@@H](C)[C@H](OC(C)=O)[C@@H]1C [Rifampicin] |  |  | MIC (S. aureus NCTC 8325 [1]; [7]): 0.125 mg/L (≈ 0.152 µM); MIC (MRSA ATCC 33592): > 64 mg/L; MIC (MRSA ATCC 49476): 0.25 mg/L (≈ 0.304 µM); MIC [2]: < 0.004 mg/L; time to over 64-fold MIC change (S. aureus NCTC 8325 [3]): ≤ 6 days; MIC (MRSA SCCmec VT): 0.5 mg/L (≈ 0.608 µM) |
| O=C(Nc1cc(Cl)cc(Cl)c1)C(CCCl)C(=O)Nc1cc(Cl)cc(Cl)c1 [SC5025, 2-(2-chloroethyl)-N^1,N^3-bis(3,5-dichlorophenyl)malonamide] | 0.25 (≈ 0.55 µM) | 0.25 (≈ 0.55 µM) |  |
| C#Cc1cccc(NC(=O)C(CCCl)C(=O)Nc2cccc(C#C)c2)c1 [SC5026, 2-(2-chloroethyl)-N^1,N^3-bis(3-ethynylphenyl)malonamide] | > 8 |  |  |
| O=C(Nc1ccccc1)C(CCCl)C(=O)Nc1ccccc1 [SC5022, 2-(2-chloroethyl)-N^1,N^3-diphenylmalonamide] | > 8 |  |  |
| O=C(Nc1ccc(Cl)c(C(F)(F)F)c1)C(CCCl)C(=O)NC1CCCCC1 (stereo not shown) [SC5053, N1-(4-chloro-3-(trifluoromethyl)phenyl)-2-(2-chloroethyl)-N3-cyclohexylmalonamide] | > 64 | > 64 |  |
| C=CCNC(=O)C(CCCl)C(=O)Nc1ccc(Cl)c(C(F)(F)F)c1 (stereo not shown) [SC5050, N1-allyl-N3-(4-chloro-3-(trifluoromethyl)phenyl)-2-(2-chloroethyl)malonamide] | > 64 | > 64 |  |
